Source: patent EP0801063B1, “Thiazolidinedione derivatives having antidiabetic, hypolipidaemic, antihypertensive properties, process for their preparation and pharmaceutical compositions containing them” (Dr. Reddy's Laboratories Ltd., priority 1996, dated 1997)

Test system: C57BL/KsJ-db/db mice
Assay: Blood sugar and triglyceride lowering in db/db mice (in vivo test)
Settings: male C57BL/KsJ-db/db mice, 200 mg / kg oral gavage daily for 10 days; for Maximum reduction in RBS level in a 9 days treatment (%): random blood sugar in plasma, glucose oxidase method, relative to vehicle control
Method: Male C57BL/KsJ-db/db mice of 6 weeks age procured from the Jackson Laboratory, USA were used in the experiment. The mice were provided with standard pellets made by National Institute of Nutrition, Hyderabad, India and ad libitum water. The mice of 8 to 14 weeks age, having body weight 40 to 55 grams or more were used for testing.
The random blood sugar (RBS) values were measured by withdrawing blood (20 ul) through orbital sinus, using heparinised capillary, centrifuging the blood to obtain plasma and measuring the glucose level in the plasma by the glucose oxidase method using Stangen glucose-kit. The triglyceride levels in plasma were measured by glycerol 3 PO4 oxidase / peroxidase enzyme method using Stangen kit. Four mice in a group having 300 mg / dl or more of the blood sugar level were used for the test.
The test compounds were suspended in 2.0 % gum acacia and administered to test group at a dose of 200 mg / kg, through oral gavage daily for 10 days. The control group received the vehicle (Gum acacia 2 % 10 ml / kg). The random blood sugar levels and triglyceride levels were measured at diffirent time intervals before and after administration of test compounds. Troglitazone, (200 mg / kg daily dose) was used as a standard compound in the protocol.
The ability of reducing blood sugar level was determined as described below. The mean blood sugar values on zero day before administering the control vehicle (ZC) and treated group (TC) and the means of blood sugar values of the vehicle treated control on 3rd, 6th and 9th day and test compound treated group day control (DC) and day treated (DT).
The blood sugar lowering effect of test compound is calculated according to the following formula : Blood sugar lowering effect (%) = 1 -(DT/TC)/(DC/ZC)X 100 [formula]
The blood triglyceride (TG) lowering activity was calculated as percent reduction on the 9th day as compared to the control animal values.

Structure (SMILES) | Triglyceride lowering (%) (plasma triglyceride, percent reduction on the 9th day compared to control animals) | Maximum reduction in RBS level in a 9 days treatment (%)
Cc1c(C)c2c(c(C)c1O)CCC(C)(CN(C)CCOc1ccc(C=C3SC(=O)NC3=O)cc1)O2 (stereo not drawn) [Example 12, 5-[4-[2-[N-(6-Hydroxy-2,5,7,8-tetramethylchroman-2-ylmethyl)-N-methylamino]ethoxy]phenylmethylene]thiazolidine-2,4-dione] | 70 | 43
Cc1c(C)c2c(c(C)c1O)CCC(C)(COc1ccc(CC3SC(=O)NC3=O)cc1)O2 (stereo not drawn) [Troglitazone, reference compound] |  | 26
